Experimental data: patent publication US6013660A (priority 1996, dated 2000)
“Also recorded” adds a separate entry of the source. Like-named read-outs stand apart in the source and are kept apart here.

Assays:
M. tuberculosis Erdman [1] = experiment: M. tuberculosis Erdman growth in broth, various concentrations of inhibitor (Examples 5, 12); assay type: cell-based, Mycobacterium tuberculosis; details: for inhibitory effect on M. tuberculosis growth (comparison of known GS inhibitors): relative to L-methionine-S-sulfoximine
M. tuberculosis Erdman [2] = experiment: Control: effect of SDS on M. tuberculosis Erdman growth in broth culture (FIG. 24); assay type: cell-based, Mycobacterium tuberculosis; details: 0.1% SDS
Method: In the presence of 200 μM MS, M. tuberculosis growth was inhibited by almost 1 log by two days and by nearly 2 logs by five days.

[3] = biological target: T1, extracellular glutamine synthetase (Mycobacterium tuberculosis, UniProt P9WN39); experiment: biochemical; details: read-out: extracellular GS activity relative to untreated cultures
M. tuberculosis H37Rv = details: 0.2-200 μM MS; FIG. 5; similar to Erdman; listed as MS
[4] = tested on: L. pneumophila Philadelphia 1; details: 0.2, 2, 20, 200 μM MS; FIG. 11
[5] = biological target: T2, extracellular glutamine synthetase (Mycobacterium avium, UniProt A0ACG7XF78); experiment: biochemical; details: read-out: concentration of MS required to completely inhibit glutamine synthetase activity
[6] = biological target: T1, extracellular glutamine synthetase
M. tuberculosis Erdman [7] = details: 200 μM MS
[8] = tested on: M. tuberculosis, Erdman strain; details: 2000 μM MS added at 0, 1, 2, 3, 4 weeks; FIG. 3
M. smegmatis 1-2c = details: 0.2, 2, 20, 200 μM MS; FIG. 10
glutamine synthetase = details: Manning et al., 1969; cited from earlier work
[9] = biological target: T2, extracellular glutamine synthetase; details: M. avium vs highly pathogenic strains
[10] = biological target: cell-associated glutamine synthetase (Mycobacterium tuberculosis, UniProt P9WN39); details: 20 μM MS; vs untreated; FIG. 22
THP-1 cells = experiment: Growth/toxicity in human monocyte cell line THP-1, Examples 14 and 15; assay type: cell-based; details: for effect on growth rate of THP-1 cells: 200 μM MS, FIG. 19
M. phlei = details: 0.2, 2, 20, 200 μM MS; FIG. 9
M. bovis BCG = details: FIG. 7; listed as MS
E. coli DH5α = details: 0.2, 2, 20, 200 μM MS; FIG. 12
M. tuberculosis Erdman [11] = experiment: Effect of L-glutamine on M. tuberculosis Erdman broth cultures with or without MS, Example 13; assay type: cell-based, Mycobacterium tuberculosis; details: for effect of L-glutamine on M. tuberculosis growth without MS: no MS, FIG. 14; for effect of L-glutamine on M. tuberculosis growth with subinhibitory MS: subinhibitory (minimally inhibitory, FIG. 15) MS
Method: L-glutamine (L-GLN) was added to MS-treated cultures of M. tuberculosis Erdman.

## CP(=O)(O)CC[C@H](N)C(=O)O [phosphinothricin, reference compound]
M. tuberculosis Erdman [1]
  inhibitory effect on M. tuberculosis growth (comparison of known GS inhibitors): only a very minor inhibitory effect on M. tuberculosis growth

## CS(=N)(=O)CCC(N)C(=O)O (racemic) [DL-methionine-SR-sulfoximine, reference compound]
M. tuberculosis Erdman [1]; FIG. 13 vs FIG. 4
  potency in inhibiting growth of M. tuberculosis relative to L-methionine-S-sulfoximine: about 1/4
M. tuberculosis Erdman [1]
  inhibitory effect on M. tuberculosis growth (comparison of known GS inhibitors): significantly weaker inhibitory effect on the growth of M. tuberculosis

## CCCCCCCCCCCCOS(=O)(=O)[O-].[Na+] [SDS, sodium dodecyl sulfate]
M. tuberculosis Erdman [2]
  influence of SDS on growth of M. tuberculosis in broth: had no influence on growth of M. tuberculosis in broth culture

## C[S@](=N)(=O)CC[C@H](N)C(=O)O [L-methionine-S-sulfoximine]
[3]
  activity at 20 µM: < 25%
M. tuberculosis H37Rv
  growth inhibition of M. tuberculosis H37Rv in broth: strongly inhibits, in dose-dependent fashion
[4]
  growth inhibition of L. pneumophila: lack of effect
[5]
  IC100: 200 µM
[6]; 20 μM MS, extracellular vs cell-associated
  preferential inhibition of extracellular over cell-associated GS activity: preferentially inhibits extracellular GS activity
[6]; 0.2-200 μM MS from week 1, FIG. 20
  extracellular GS activity in M. tuberculosis cultures: marked decrease in extracellular GS activity
[6]; 2-200 μM MS
  increase in extracellular GS activity over 3 weeks (week 1 to week 4): little or no increase in extracellular GS activity
M. tuberculosis Erdman [7]; Day 0
  Colony forming units of M. tuberculosis Erdman from infected THP-1 human monocytes: 8.58 × 10^5 CFU
M. tuberculosis Erdman [7]; Day 2
  Colony forming units of M. tuberculosis Erdman from infected THP-1 human monocytes: 6.22 × 10^5 CFU
M. tuberculosis Erdman [7]; Day 5a, lysed with sodium dodecyl sulfate
  Colony forming units of M. tuberculosis Erdman from infected THP-1 human monocytes: 4.80 × 10^5 CFU
M. tuberculosis Erdman [7]; Day 5b, lysed by vortexing
  Colony forming units of M. tuberculosis Erdman from infected THP-1 human monocytes: 4.32 × 10^5 CFU
M. tuberculosis Erdman [7]; by five days
  inhibition of intracellular M. tuberculosis growth: ~2 logs
M. tuberculosis Erdman [7]; by two days
  inhibition of intracellular M. tuberculosis growth: ~1 log
[8]
  inhibition of M. tuberculosis growth in broth by time of addition: inhibited the growth of M. tuberculosis in broth cultures when added up to 3 weeks following inoculation
M. tuberculosis Erdman [1]; 2 μM MS
  growth inhibition of M. tuberculosis Erdman in broth: strongly inhibited
M. tuberculosis Erdman [1]; 20 μM MS
  growth inhibition of M. tuberculosis Erdman in broth: completely inhibited
M. tuberculosis Erdman [1]; 200 μM MS
  growth inhibition of M. tuberculosis Erdman in broth: completely inhibited
M. tuberculosis Erdman [1]; 0.2, 2, 20, 200 μM, OD540 weekly, FIG. 4, listed as MS
  growth inhibition of M. tuberculosis Erdman in broth, overall: strongly inhibits, in dose-dependent fashion; also recorded: inhibited the growth of M. tuberculosis Erdman in broth culture at all concentrations tested
M. tuberculosis Erdman [1]; Mycobacterium tuberculosis, broth culture, FIGS. 4 and 5 (Erdman and H37Rv), read-out: MS concentrations as low as ... inhibited M. tuberculosis growth
  minimal effective concentration: 0.2 µM
M. smegmatis 1-2c
  growth inhibition of M. smegmatis: lack of effect
Glutamine synthetase
  inhibition of glutamine synthetase: inhibits glutamine synthetase
[9]
  concentration required to inhibit GS activity compared with M. tuberculosis and M. bovis: higher than that required to inhibit the glutamine synthetase activity of the highly pathogenic strains of M. tuberculosis and M. bovis
[10]
  cell-associated GS activity: only slightly reduced
THP-1 cells; 0 or 200 μM MS
  growth and viability of THP-1 cells: grew at the same rate and maintained high viability
THP-1 cells
  effect on growth rate of THP-1 cells: lack of effect
THP-1 cells; listed as MS
  effect on growth rate of THP-1 cells: no influence on the growth rate of these cells
THP-1 cells; up to 200 μM MS, listed as MS
  toxicity against THP-1 cells: no toxicity toward a human monocyte cell line; also recorded: no evidence of toxicity against THP-1 cells; also recorded: no evident toxicity for THP-1 cells up to a concentration of 200 μM
M. phlei
  growth inhibition of M. phlei: lack of effect
M. bovis BCG
  growth inhibition of M. bovis BCG in broth: strongly inhibits, in dose-dependent fashion
E. coli DH5α
  growth inhibition of E. coli: lack of effect

## NC(=O)CC[C@H](N)C(=O)O [L-glutamine]
M. tuberculosis Erdman [11]; inhibitory MS (2, 20, 200 μM), FIGS. 16-18
  effect of L-glutamine on MS inhibition of M. tuberculosis: reverse the inhibitory effect of MS in a dose-dependent fashion; also recorded: reversed the inhibitory effect of MS
M. tuberculosis Erdman [11]
  effect of L-glutamine on M. tuberculosis growth without MS: no or little influence on M. tuberculosis growth; also recorded: lack of effect
  effect of L-glutamine on M. tuberculosis growth with subinhibitory MS: no or little influence on M. tuberculosis growth; also recorded: lack of effect
M. tuberculosis Erdman [11]; listed as L-GLN
  effect of L-glutamine on M. tuberculosis growth without MS: no effect on the growth
  effect of L-glutamine on M. tuberculosis growth with subinhibitory MS: no effect on the growth
